According to US7737166B2, “Antifungal bicyclic hetero ring compounds” (Daiichi Sankyo Company, Limited, priority 2005, dated 2010):
Converted amounts (≈) assume the structure as drawn.

Key:
[1] = system: C. glabrata ATCC48435; assay: Antifungal activity (GI80), growth inhibition in YPD20 medium by absorbance at 600 nm; type: cell-based; details: Nakaseomyces glabratus, ATCC48435, minimum concentration for at least 80% cell growth inhibition, 37° C., absorbance 600 nm, read-out: GI80 (μg/ml) C. glabrata ATCC48435
Procedure, shortened: (§1)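 Cells grown overnight on Sabouraud dextrose agar at 30° C were inoculated at 5×10^3 cells/ml into YPD20-type medium with 2-fold DMSO compound dilutions. Aerobic static culture at 37° C for […], then A600 read; GI80 is the lowest concentration giving ≥80% growth inhibition versus compound-free wells.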

[2] = system: C. albicans ATCC90028; assay: as above; type: cell-based; details: Candida albicans, ATCC90028, minimum concentration for at least 80% cell growth inhibition, 37° C., absorbance 600 nm, read-out: GI80 (μg/ml) C. albicans ATCC90028
Procedure, shortened: as §1

[3] = system: C. albicans ATCC MYA-573; assay: as above; type: cell-based; details: Candida albicans, minimum concentration for at least 80% cell growth inhibition, 37° C., absorbance 600 nm, read-out: GI80 (μg/ml) C. albicans ATCC MYA-573
Procedure, shortened: as §1

Row | Compound | IC80 [1] | IC80 [2] | IC80 [3] | melting point
1 | Cc1c(-c2ccccc2)c(N2CC[C@H](N(C)C)C2)c2oc(C(=O)N(C)C)nc2c1C#N [Example 40, 4-Cyano-7-[(3S)-3-(dimethylamino)pyrrolidin-1-yl]-N,N,5-trimethyl-6-phenyl-1,3-benzoxazole-2-carboxamide] | 0.016 µg/mL (≈ 0.0383 µM) | 0.063 µg/mL (≈ 0.151 µM) | 0.063 µg/mL (≈ 0.151 µM) | 139 to 142 °C
2 | Cc1nc(-c2c(C)c(C#N)c3nc(C(=O)N(C)C)oc3c2N2CC[C@H](N(C)C)C2)cs1 [Example 51, 4-Cyano-7-[(3S)-3-(dimethylamino)pyrrolidin-1-yl]-N,N,5-trimethyl-6-(2-methyl-1,3-thiazol-4-yl)-1,3-benzoxazole-2-carboxamide] | 0.25 µg/mL (≈ 0.57 µM) | 1 µg/mL (≈ 2.28 µM) | 1 µg/mL (≈ 2.28 µM) | 153 to 156 °C
3 | Cc1c(-c2ccccc2)c(N2CCC(N(C)C)C2)c2oc(C(C)(C)CO)nc2c1C#N (stereo not drawn) [Example 14, 7-[3-(Dimethylamino)pyrrolidin-1-yl]-2-(2-hydroxy-1,1-dimethylethyl)-5-methyl-6-phenyl-1,3-benzoxazole-4-carbonitrile] | 0.125 µg/mL (≈ 0.299 µM) | 0.25 µg/mL (≈ 0.597 µM) | 0.25 µg/mL (≈ 0.597 µM) | 175 to 178 °C
4 | Cc1c(-c2cccn2C)c(N2CC[C@H](N(C)C)C2)c2oc(C3CC3)nc2c1C#N [Example 22, 2-Cyclopropyl-7-[(3S)-3-(dimethylamino)pyrrolidin-1-yl]-5-methyl-6-(1-methyl-1H-pyrrol-2-yl)-1,3-benzoxazole-4-carbonitrile] | 0.5 µg/mL (≈ 1.28 µM) | 0.5 µg/mL (≈ 1.28 µM) | 1 µg/mL (≈ 2.57 µM) | 127 to 128 °C
5 | Cc1c(-c2ccccc2)c(N2CC[C@H](N(C)C)C2)c2oc(C(C)(C)F)nc2c1C#N [Example 148, 7-[(3S)-3-(Dimethylamino)pyrrolidin-1-yl]-2-(1-fluoro-1-methylethyl)-5-methyl-6-phenyl-1,3-benzoxazole-4-carbonitrile] | < 0.016 µg/mL | 0.032 µg/mL (≈ 0.0787 µM) | 0.063 µg/mL (≈ 0.155 µM) | 130 to 132 °C
6 | Cc1c(-c2ccccc2)c(N2CC[C@H](N(C)C)C2)c2oc(C(C)(C)C)nc2c1C#N.Cl [Example 1, 2-tert-Butyl-7-[(3S)-3-(dimethylamino)pyrrolidin-1-yl]-5-methyl-6-phenyl-1,3-benzoxazole-4-carbonitrile hydrochloride] | 0.032 µg/mL | 0.063 µg/mL | 0.063 µg/mL | 198 to 201 °C (dec.)
7 | Cc1nc(-c2c(C)c(C#N)c3nc(C4CC4)oc3c2N2CC[C@H](N(C)C)C2)cs1 [Example 23, 2-Cyclopropyl-7-[(3S)-3-(dimethylamino)pyrrolidin-1-yl]-5-methyl-6-(2-methyl-1,3-thiazol-4-yl)-1,3-benzoxazole-4-carbonitrile] | 0.5 µg/mL (≈ 1.23 µM) | 1 µg/mL (≈ 2.45 µM) | 1 µg/mL (≈ 2.45 µM) | 167 to 168 °C
8 | Cc1c(-c2ccccc2N)c(N2CC[C@H](N(C)C)C2)c2oc(C3CC3)nc2c1C#N [Example 144-13, 6-(2-Aminophenyl)-2-cyclopropyl-7-[(3S)-3-(dimethylamino)pyrrolidin-1-yl]-5-methyl-1,3-benzoxazole-4-carbonitrile] | 0.5 µg/mL (≈ 1.25 µM) | 1 µg/mL (≈ 2.49 µM) | 1 µg/mL (≈ 2.49 µM) | 191 to 194 °C
9 | Cc1c(-c2ccccc2)c(N2CC[C@H](N(C)C)C2)c2oc(N3CC(CO)C3)nc2c1C#N [Example 98, 7-[(3S)-3-(Dimethylamino)pyrrolidin-1-yl]-2-[3-(hydroxymethyl)azetidin-1-yl]-5-methyl-6-phenyl-1,3-benzoxazole-4-carbonitrile] | 0.125 µg/mL (≈ 0.29 µM) | 0.5 µg/mL (≈ 1.16 µM) | 0.5 µg/mL (≈ 1.16 µM) | 48 to 51 °C
10 | Cc1c(-c2ccccc2)c(N2CC[C@H](N(C)C)C2)c2oc(-c3ccccn3)nc2c1C#N [Example 35, 7-[(3S)-3-(Dimethylamino)pyrrolidin-1-yl]-5-methyl-6-phenyl-2-(pyridin-2-yl)-1,3-benzoxazole-4-carbonitrile] | 0.032 µg/mL (≈ 0.0756 µM) | 0.25 µg/mL (≈ 0.59 µM) | 0.25 µg/mL (≈ 0.59 µM) | 227 to 233 °C
11 | CN[C@H]1CCN(c2c(-c3ccccc3)c(C)c(C#N)c3nc(C(C)(C)C)oc23)C1.Cl [Example 2, 2-tert-Butyl-5-methyl-7-[(3S)-3-(methylamino)pyrrolidin-1-yl]-6-phenyl-1,3-benzoxazole-4-carbonitrile hydrochloride] | 0.125 µg/mL | 0.5 µg/mL | 0.25 µg/mL | 237 to 240 °C (dec.)
12 | CN[C@H]1CCN(c2c(-c3ccccc3)c(C)c(C#N)c3nc(C(=O)N(C)C)oc23)C1 [Example 40-1, 4-Cyano-N,N,5-trimethyl-7-[(3S)-3-(methylamino)pyrrolidin-1-yl]-6-phenyl-1,3-benzoxazole-2-carboxamide] | 0.032 µg/mL (≈ 0.0793 µM) | 0.25 µg/mL (≈ 0.62 µM) | 0.25 µg/mL (≈ 0.62 µM) | 148 to 151 °C
